“Also recorded” adds a separate entry of the source. Like-named read-outs stand apart in the source and are kept apart here.
Columns and labels:
adult male Wistar rats [1] = assay: Cue-induced reinstatement of extinguished cocaine seeking; type: in vivo, rat; settings: for reinstatement of extinguished cocaine seeking: pretreatment, summary of the studies
Description: Training to self-administer cocaine: In one model, rats were exposed to alternating 15-minute periods of access to cocaine self-administration and food reinforcement. Food was used to control for potential nonspecific, ataxis effects of the drugs and combinations. […] The other preclinical model that has been used is the cue-induced reinstatement of extinguished cocaine seeking model of relapse. In this model, rats are trained to self-administer cocaine and the ability of conditioned cues in the environment to reinstate extinguished responding is assessed and taken as a measure of relapse.
Cue-induced Reinstatement of Extinguished Cocaine Seeking: The experiments described herein were designed to investigate whether or not drug combinations identified as effective in reducing cocaine self-administration would also block the ability of conditioned cues to reinstate extinguished cocaine-seeking behavior. Adult male Wistar rats were implanted with chronic jugular catheters and trained to self-administer cocaine (0.25 mg/kg/infusion) by pressing one of the response levers in the experimental chamber (i.e., the “active” or “cocaine” lever) under a fixed-ratio […] schedule of reinforcement during daily 2-hour sessions conducted 5 days per week. At the start of each session, both levers were extended into the chamber and the stimulus light above the active lever was illuminated to indicate the availability of cocaine. […] A 20-second timeout period followed each infusion. The stimulus light above the active lever and the house light and tone compound stimulus were extinguished during the timeout period, and the light above the active lever was illuminated once the timeout ended. When responding on the active lever varied less than 20% for two consecutive days, the response requirement was increased to FR2. When similar stability was observed under the FR2 schedule or reinforcement, the response requirement was increased to the final ratio of four. The criteria for stable responding under the FR4 schedule of reinforcement was a minimum of 10 days of exposure to this schedule that concluded with at least three consecutive days when responding varied by less than 10%. […] Once stable cocaine self-administration was observed, rats were exposed to extinction; the rats were placed into the behavioral chambers, but responding on the “cocaine” (active) lever produced no programmed consequences. Extinction training continued until responding decreased to less than 20% of baseline self-administration. Then reinstatement testing commended. The rats were placed into the experimental chambers, both response levers were extended into the chamber, and the stimulus light above the “active” lever was illuminated as during self-administration training. […] Responding on the “active” lever during reinstatement testing was taken as, an index of cocaine-seeking behavior. Each experimental group consisted of […].

adult male Wistar rats [2] = assay: Intravenous cocaine self-administration under a multiple, alternating schedule of food reinforcement and cocaine self-administration; type: in vivo, rat
Description: Adult male Wistar rats were trained under a multiple, alternating schedule of cocaine and food self-administration. This schedule consisted of alternating periods of cocaine access and food reinforcement. In some instances, as described further below, three doses of cocaine (0.125, 0.25, or 0.50 mg/kg/infusion) were tested. Rats were also periodically trained with saline substitution (cocaine extinction) and food extinction during the same session.
More specifically, adult male Wistar rats were implanted with chronic jugular catheters. Following recovery from surgery, the rats were trained to respond under a multiple, alternating schedule of food reinforcement and cocaine self-administration. Food-maintained responding was used to control for the non-specific motor effects of the various treatments. During the food component of the schedule, the stimulus light located above the food response lever was illuminated to indicate the availability of food reinforcement. […] A 25-second timeout followed the delivery of each food pellet. During this timeout, the stimulus light was darkened and responses on the food lever were counted but had no scheduled consequences. Responding on the other (cocaine) lever during the food component also had no scheduled consequences. […] Following 15 minutes of access to food, all stimulus lights in the chamber were darkened for a 1-minute timeout. Following the timeout, the stimulus light above the cocaine response lever was illuminated to indicate the availability of cocaine (0.125, 0.25, or 0.5 mg/kg/infusion). […] A 20-second timeout period followed each infusion. […] After 15 minutes of access to cocaine and a 1-minute timeout, the rats were again allowed 15 minutes access to the food component of the schedule. Access to food and cocaine alternated in this manner every 15 minutes during the two hour behavioral sessions so that each rat was exposed to food and cocaine for four 15-minute periods each. Each behavioral session began with 15 minutes access to either food or cocaine, and this alternated daily. Stable baselines of responding were established when the total number of cocaine and food presentations, as well as the number of presentations during each of the four exposures each session, varied less than 10% for three consecutive sessions. At least three different doses of cocaine (e.g., 0.125, 0.25, and 0.5 mg/kg/infusion) were tested. Rats were first trained to self-administer 0.25 mg/kg/infusion, which was the standard dose of cocaine used. When responding stabilized, the dose was changed to 0.125 or 0.5 mg/kg/infusion as appropriate.
Once stable baselines of responding were obtained, dose-response curves for the various compounds were individually generated for each rat. Rats were treated with each dose at least twice with a minimum of two days of baseline cocaine self-administration interspersed between each test. Each group of rats was tested with only two of the test compounds to minimize potential carryover effects.

rats = settings: pretreatment, literature; cited from earlier work
smokers = settings: smoking cessation therapy; cited from earlier work
[3] = Pharmacokinetic interaction between cocaine, metyrapone and oxazepam (plasma concentrations, GCMS); type: in vivo, rat
Description: Thirty minutes following the drug combination or vehicle injection, the rats received intravenous injections of cocaine (0.25 mg/kg/infusion) every 2 minutes for 1 hour. After the final injection of cocaine, blood was collected from the catheter for the analysis of cocaine and its metabolites ecgonine methyl ester and benzoylecgonine. […] All drug concentrations were determined using GCMS procedures.

[4] = Phase I single- and multiple-rising dose study: plasma pharmacokinetics; parameters: species or system human; settings: in vivo; for change of half-lives at different doses or with repeated dosing / Tmax / half-life: human; for half-life: t1/2
Description: Total daily doses were double these amounts on BID dosing days. Primary outcomes were safety and pharmacokinetics of MET, its active metabolite (metyrapol), and OX. Safety measures included vital signs, ECGs an standard safety labs. Cortisol and other HPA axis parameters were monitored closely throughout the study.
They were not seeking to quit smoking. […] Primary outcomes were safety and pharmacokinetics.

male Wistar rats = assay: Forced Swim Test (FST), animal model of depression
[5] = high dose, ip pretreatment, drug alone
[6] = low, ineffective dose, ip pretreatment, drug alone
[7] = pretreatment, summary of the studies

Q: Which “reinstatement of extinguished cocaine seeking” value (adult male Wistar rats [1]) does the source give for `CCCCN(CC)c1nc(C)nc2c1c(C)cn2-c1c(C)cc(C)cc1C` [CP-154,526] here?
A: Its value is “decrease”.

Q: And the cocaine self-administration (adult male Wistar rats [2]; [5])?
A: The cocaine self-administration was “reduced cocaine self-administration”.

Q: What about the cocaine self-administration (adult male Wistar rats [2]; [6]) of the same molecule?
A: The cocaine self-administration was “did not significantly affect”.

Q: And the cocaine self-administration (adult male Wistar rats [2]; [7])?
A: The cocaine self-administration was “decrease cocaine self-administration”.

Q: With `Cc1nnc2n1-c1ccc(Cl)cc1C(c1ccccc1)=NC2` [alprazolam] as the molecule, how does the “reinstatement of extinguished cocaine seeking” value (adult male Wistar rats [1]) read?
A: The value was “decrease”.

Q: And the cocaine self-administration (rats)?
A: The cocaine self-administration was “reduced responding maintained by both food and cocaine”.

Q: What about the cocaine self-administration (adult male Wistar rats [2]; [5]) of the same molecule?
A: The cocaine self-administration was “reduced cocaine self-administration”.

Q: What about the cocaine self-administration (adult male Wistar rats [2]; [6]) of the same molecule?
A: The cocaine self-administration was “did not significantly affect”.

Q: And the cocaine self-administration (adult male Wistar rats [2]; [7])?
A: Its cocaine self-administration is “decrease cocaine self-administration”.

Q: With `CC(NC(C)(C)C)C(=O)c1cccc(Cl)c1` (centres unmarked) [bupropion] as the molecule, how does the “one year quit rate” value (smokers) read?
A: Its value is 15.5%.

Q: For `COC(=O)[C@H]1[C@@H](OC(=O)c2ccccc2)C[C@@H]2CC[C@H]1N2C` [cocaine], which “effect on plasma concentrations of metyrapone or oxazepam” value ([3]; rats, presence of cocaine) is on record?
A: Its value is “did not affect the plasma concentrations of metyrapone or oxazepam”.

Q: For `CC(=O)N1CCN(c2ccc(OCC3COC(Cn4ccnc4)(c4ccc(Cl)cc4Cl)O3)cc2)CC1` (centres unmarked) [ketoconazole], which “reinstatement of extinguished cocaine seeking” value (adult male Wistar rats [1]) is on record?
A: The value was “decrease”.

Q: And the cocaine self-administration (rats)?
A: The cocaine self-administration was “reduced cocaine self-administration”.

Q: What about the cocaine self-administration (adult male Wistar rats [2]; [6]) of the same molecule?
A: The cocaine self-administration was “no effect; also recorded: did not significantly affect”.

Q: What about the cocaine self-administration (adult male Wistar rats [2]; [7]) of the same molecule?
A: The cocaine self-administration was “decrease cocaine self-administration”.

Q: What about the “minimally effective dose that reduced cocaine self-administration by at least 50% without affecting food-maintained responding” value (adult male Wistar rats [2]; rats) of the same molecule?
A: Its value is 25 mg/kg.

Q: With `CC(C)(c1cccnc1)C(O)c1cccnc1` (centres unmarked) [metyrapol] as the molecule, how does the “change of half-lives at different doses or with repeated dosing” value [4] read?
A: Its value is “did not change substantially”.

Q: What about the Tmax ([4]; Tmax) of the same molecule?
A: Its Tmax is 2 h.

Q: And the half-life [4]?
A: The half-life was 505 min.

Q: Which “change of half-lives at different doses or with repeated dosing” value [4] does the source give for `CC(C)(C(=O)c1cccnc1)c1cccnc1` [metyrapone] here?
A: The value was “did not change substantially”.

Q: And the Tmax ([4]; Tmax)?
A: The Tmax was 1.5 h.

Q: And the half-life [4]?
A: The half-life was 122 min.

Q: And the “accumulation with repeated dosing” value [4]?
A: Its value is “Modest accumulation”.

Q: And the “influence on plasma concentrations of each other” value ([3]; rat, in vivo, ip)?
A: Its value is “did not influence plasma concentrations of each other”.

Q: And the “cue-induced reinstatement of extinguished cocaine seeking” value (adult male Wistar rats [1]; chronic, 50 mg/kg, ip, once per day for 14 days)?
A: The value was “reduced cocaine seeking to levels seen when only saline was delivered”.

Q: What about the “reinstatement of extinguished cocaine seeking” value (adult male Wistar rats [1]) of the same molecule?
A: The value was “decrease”.

Q: What about the cocaine self-administration (rats) of the same molecule?
A: The cocaine self-administration was “significant dose-related decreases”.

Q: And the cocaine self-administration (adult male Wistar rats [2]; [5])?
A: The cocaine self-administration was “reduced cocaine self-administration”.

Q: And the cocaine self-administration (adult male Wistar rats [2]; [6])?
A: The cocaine self-administration was “did not significantly affect”.

Q: And the cocaine self-administration (adult male Wistar rats [2]; [7])?
A: The cocaine self-administration was “decrease cocaine self-administration”.

Q: What about the immobility time (male Wistar rats; chronic, individual drug, Met50 group) of the same molecule?
A: The immobility time was “showed a lessening of immobility time”.

Q: And the “group means of immobility versus vehicle (tolerance)” value (male Wistar rats; chronically treated groups, drug alone)?
A: The value was “equal to or exceeded the vehicle”.

Q: With `NCc1cc(=O)[nH]o1` [muscimol] as the molecule, how does the cocaine self-administration (adult male Wistar rats [2]; [5]) read?
A: The cocaine self-administration was “reduced cocaine self-administration”.

Q: What about the cocaine self-administration (adult male Wistar rats [2]; [6]) of the same molecule?
A: The cocaine self-administration was “did not significantly affect”.

Q: For `O=C1Nc2ccc(Cl)cc2C(c2ccccc2)=NC1O` (centres unmarked) [oxazepam], which Tmax ([4]; human plasma, 270 mg Metyrapone/12 mg Oxazepam, Day 1, median, n 6, read-out: Tmax) is on record?
A: The Tmax was 3.5 h.

Q: What about the Tmax ([4]; human plasma, 270 mg Metyrapone/12 mg Oxazepam, Day 10, median, n 6, read-out: Tmax) of the same molecule?
A: Its Tmax is 3 h.

Q: What about the Tmax ([4]; human plasma, 540 mg Metyrapone/24 mg Oxazepam, Day 1, median, n 6, read-out: Tmax) of the same molecule?
A: Its Tmax is 3 h.

Q: What about the Tmax ([4]; human plasma, 540 mg Metyrapone/24 mg Oxazepam, Day 10, median, n 6, read-out: Tmax) of the same molecule?
A: Its Tmax is 3 h.

Q: What about the Tmax ([4]; human plasma, 720 mg Metyrapone/24 mg Oxazepam, Day 1, median, n 6, read-out: Tmax) of the same molecule?
A: Its Tmax is 4 h.

Q: And the Tmax ([4]; human plasma, 720 mg Metyrapone/24 mg Oxazepam, Day 10, median, n 6, read-out: Tmax)?
A: Its Tmax is 3 h.

Q: For `c1cnc2cc3c(cc2n1)[C@@H]1CNC[C@H]3C1` [varenicline], which “one year quit rate” value (smokers) is on record?
A: The value was 22.5%.
